Earlier results in US20230190604A1, “DERMATOLOGIC/PERSONAL CARE CONCENTRATES” (Vantage Specialty Ingredients, Inc., priority 2021, published 2023).

Tests used:
[1] = ethanol as solvent, "normal temperatures"
[2] = water as solvent

stability of azelaic acid in ethanol [1]: unstable
maximum concentration of azelaic acid dissolved in water [2]: about 0.24 % by weight (w/w)
Compound: O=C(O)CCCCCCCC(=O)O [azelaic acid]
